From patent US5516797A, “Immunosuppressive compounds” (Vertex Pharmaceuticals, Incorporated, priority 1994, dated 1996)

Key:
[1] = tested on: IL-2 production; conditions: in vitro; cited from earlier work
[2] = tested on: CTLLs; conditions: cited from earlier work
[3] = tested on: T-cell hybridoma; assay: Apoptosis: activation-induced (anti-CD3) cell death in T-cell hybridoma (Table 5, assay 3); format: cell-based; conditions: for Apoptosis (activation-induced cell death): at 1 μg/ml
Description: 3) Assay according to Shi, Y. et al., Nature 339:625-626 (1989). The assay uses a T-cell hybridoma similar to that described. The assay measures activation-induced (anti-CD3) cell death (evaluated by counting viable cells after staining as described) in a T-cell hybridoma that mimics the effect known to occur in immature thymocytes.

[4] = tested on: human peripheral blood lymphocytes; assay: Human PBL + OKT3 proliferation (Table 5, assay 1); format: cell-based; conditions: Lymphocyte, [3H]TdR incorporation, estimated
Protocol: 1) Assay similar to Yoshimura, N. et al., Transplantation 47:356-359 (1989). Assay uses fresh human peripheral blood lymphocytes isolated by Ficoll-Hypaque density centrifugation, stimulated bythe OKT3 antibody (anti-CD3) which stimulates via interaction with CD3. Stimulation is measured by incorporation of radioactive thymidine [(^3 H)TdR] into proliferating cells, with an uninhibited control signal of 48,000-75,000 cpm. IC50 values are estimated from inhibitions of proliferation observed at various drug concentrations.

[5] = tested on: CTLL cells; assay: CTLL Proliferation + IL-2 (Table 5, assay 4); format: cell-based, murine; conditions: for IC50: Mus musculus, CTLL, exogenous IL-2, [3H]TdR incorporation
Protocol: 4) Assay according to DuMont, F. et al., J. Immunol. 144:251-258 (1990). The assay measures the stimulation of CTLL cells in response to IL-2. Proliferation is measured by incorpoation of (^3 H)TdR. […] In this assay, exogenous IL-2 is provided to overcome this block.
Fresh peripheral blood lymphocytes (PBLs) from LeukoPak cells or whole blood from random normal blood donors (tested HIV-negative and hepatitis negative) are isolated and separated by density centrifugation over Histopaque 1077 (Sigma Chemical Co., St. Louis, Mo.). The murine CTLL cytotoxic T cell line and the human Jurkat T cell line are from ATCC (CTLL-2 ATCC TIB214, JURKAT CLONE E6-1 ATCC TIBl52). The human allogeneic B cell lines used for activation of the fresh PBLs are EBV-transformed lymphocytes from normal healthy adult donors with two completely different HLAhaplotypes. All cell lines were routinely tested for the presence of Mycolasma contamination using the GibcoMycotect test kit and are Mycolasma-free. Culture medium consksts of RPMI 1640 (Gibco, Grand Island, N.Y.) containing penicillin (50 U/ml) and streptomycin (50 μg/ml), L-glutamine 2 mM, 2 mercaptoethanol (5×10^-5), 10% heat-inactivated FCS and 10 mM HEPES.

[6] = tested on: mixed lymphocyte culture; conditions: in vitro; cited from earlier work
[7] = tested on: binding protein (FKBP); conditions: cited from earlier work
[8] = tested on: PPIase; conditions: cited from earlier work
[9] = tested on: cytotoxic T-cell; conditions: in vitro; cited from earlier work
[10] = tested on: T-cell clone stimulated with antibody to TCR and CD2; assay: T-Cell Hybridoma + TCR/CD2 proliferation (Table 5, assay 2); format: cell-based; conditions: [3H]TdR incorporation, estimated
Protocol: 2) Assay similar to above, but using T-cell clone stimulated with antibody to the T-cell receptor (TCR) and antibody to CD2. Stimulation is measured by incorporation of radioactive thymidine [(^3 H)TdR] into proliferating cells, with an uninhibited control signal of 23,000 cpm. IC50 values are estimated from inhibitions of proliferation observed at various drug concentrations.

Compound	inhibition of IL-2 production, concentration relative to cyclosporin A [1]	IL-2 dependent proliferation of the CTLLs [2]	activity in activation-induced cell death assay (in words) [3]	Apoptosis (activation-induced cell death) [3]	IC50 [4] [µg/mL]	IC50 [5] [µg/mL]	inhibition of mixed lymphocyte culture response, concentration relative to cyclosporin A [6]	binding to FKBP [7]	inhibition of PPIase activity [8]	inhibition of cytotoxic T-cell generation, concentration relative to cyclosporin A [9]	IC50 [10] [µg/mL]	activity in CTLL / IL-2 assay (in words) [5]
C=CC[C@@H]1/C=C(\C)C[C@H](C)C[C@H](OC)[C@H]2O[C@@](O)(C(=O)C(=O)N3CCCC[C@H]3C(=O)O[C@H](/C(C)=C/[C@@H]3CC[C@@H](O)[C@H](OC)C3)[C@H](C)[C@@H](O)CC1=O)[C@H](C)C[C@@H]2OC [FK-506]	100 times lower concentration than cyclosporin A	do not	inhibit this cell death	Blocks	< 1	> 1	100 times lower concentration than cyclosporin A	binds to a binding protein (FKBP) distinct from cyclophilin	inhibits PPIase activity	100 times lower concentration than cyclosporin A	< 1	–
CO[C@H]1C[C@@H]2CC[C@@H](C)[C@@](O)(O2)C(=O)C(=O)N2CCCC[C@H]2C(=O)O[C@H]([C@H](C)C[C@@H]2CC[C@@H](O)[C@H](OC)C2)CC(=O)[C@H](C)/C=C(\C)[C@@H](O)[C@@H](OC)C(=O)[C@H](C)C[C@H](C)/C=C/C=C/C=C/1C [Rapamycin]	–	inhibits IL-2 dependent proliferation of the CTLLs	inactive	Inactive	< 1	~0.01	–	–	–	–	< 1	active
